Source: US9643974B2, “Amino-substituted imidazopyridazines” (Bayer Intellectual Property GmbH, priority 2011, dated 2017)
Counter-ions that a name gives are not always drawn.

How the values were obtained:
human full-lengt MKNK1 = biological target: T1, human full-lengt MKNK1 (Homo sapiens, UniProt Q9BUB5, T385D); assay: MKNK1 kinase assay (MKNK1 TR-FRET assay); assay type: biochemical; settings: ATP final conc. 10 μM, 15 min preincubation, 45 min reaction at 22° C.
T1 construct: purchased Carna Biosciences 02-145; host or cells: insect cells (baculovirus expression system)
Excerpt: MKNK1-inhibitory activity of compounds of the present invention was quantified employing the MKNK1 TR-FRET assay as described in the following paragraphs.
(§1) A recombinant fusion protein of Glutathione-S-Transferase (GST, N-terminally) and human full-lengt MKNK1 (amino acids 1-424 and T344D of accession number BAA 19885.1), expressed in insect cells using baculovirus expression system and purified via glutathione sepharose affinity chromatography, was purchased from Carna Biosciences (product no 02-145) and used as enzyme. As substrate for the kinase reaction the biotinylated peptide biotin-Ahx-IKKRKLTRRKSLKG (C-terminus in amide form) was used which can be purchased e.g. form the company Biosyntan (Berlin-Buch, Germany).
(§2) For the assay 50 nL of a 100 fold concentrated solution of the test compound in DMSO was pipetted into a black low volume 384 well microtiter plate (Greiner Bio-One, Frickenhausen, Germany), 2 μL of a solution of MKNK1 in aqueous assay buffer [50 mM HEPES pH 7.5, 5 mM magnesium chloride, 1.0 mM dithiothreitol, 0.005% (v/v) Nonidet-P40 (Sigma)] was added and the mixture was incubated for 15 min at 22° C. to allow pre-binding of the test compounds to the enzyme before the start of the kinase reaction. Then the kinase reaction was started by the addition of 3 μL of a solution of adenosine-tri-phosphate (ATP, 16.7 μM=>final conc. in the 5 μL assay volume is 10 μM) and substrate (0.1 μM=>final conc. in the 5 μL assay volume is 0.06 μM) in assay buffer and the resulting mixture was incubated for a reaction time of 45 min at 22° C. The concentration of MKNK1 was adjusted depending of the activity of the enzyme lot and was chosen appropriate to have the assay in the linear range, typical concentrations were in the range of 0.05 μg/ml. The reaction was stopped by the addition of 5 μL of a solution of TR-FRET detection reagents (5 nM streptavidine-XL665 [Cisbio Bioassays, Codolet, France] and 1 nM anti-ribosomal protein S6 (pSer236)-antibody from Invitrogen [#44921G] and 1 nM LANCE EU-W1024 labeled ProteinG [Perkin-Elmer, product no. AD0071]) in an aqueous EDTA-solution (100 mM EDTA, 0.1% (w/v) bovine serum albumin in 50 mM HEPES pH 7.5).
The resulting mixture was incubated for 1 h at 22° C. to allow the formation of complex between the phosphorylated biotinylated peptide and the detection reagents. Subsequently the amount of phosphorylated substrate was evaluated by measurement of the resonance energy transfer from the Eu-chelate to the streptavidine-XL. Therefore, the fluorescence emissions at 620 nm and 665 nm after excitation at 350 nm were measured in a TR-FRET reader, e.g. a Rubystar (BMG Labtechnologies, Offenburg, Germany) or a Viewlux (Perkin-Elmer). The ratio of the emissions at 665 nm and at […] was taken as the measure for the amount of phosphorylated substrate. The data were normalised (enzyme reaction without inhibitor=0% inhibition, all other assay components but no enzyme=100% inhibition). Usually the test compounds were tested on the same microtiterplate in 11 different concentrations in the range of 20 μM to 0.1 nM (20 μM, 5.9 μM, 1.7 μM, 0.51 μM, 0.15 μM, 44 nM, 13 nM, 3.8 nM, 1.1 nM, 0.33 nM and 0.1 nM, the dilution series prepared separately before the assay on the level of the 100 fold concentrated solutions in DMSO by serial 1:3.4 dilutions) in duplicate values for each concentration and […] were calculated by a 4 parameter fit.

human full-length MKNK1 = biological target: T2, human full-length MKNK1 (Homo sapiens, UniProt Q9BUB5, T385D); assay: MKNK1 kinase high ATP assay (TR-FRET-based); assay type: biochemical; settings: ATP final conc. 2 mM, 15 min preincubation, 30 min reaction at 22° C.
T2 construct: purchased Carna Biosciences 02-145; host or cells: insect cells (baculovirus expression system)
Experimental: MKNK1 Kinase High ATP Assay
MKNK1-inhibitory activity at high ATP of compounds of the present invention after their preincubation with MKNK1 was quantified employing the TR-FRET-based MKNK1 high ATP assay as described in the following paragraphs.
as §1, with “human full-length” for “human full-lengt”, “was used,” for “was used”, “e.g. from” for “e.g. form”
as §2, with “3.3 mM=>final” for “16.7 μM=>final”, “2 mM)” for “10 μM)”, “30” for “45”, “0.003 μg/mL.” for “0.05 μg/ml.”
The resulting mixture was incubated for 1 h at 22° C. to allow the formation of complex between the phosphorylated biotinylated peptide and the detection reagents. Subsequently the amount of phosphorylated substrate was evaluated by measurement of the resonance energy transfer from the Eu-chelate to the streptavidine-XL. Therefore, the fluorescence emissions at 620 nm and 665 nm after excitation at 350 nm were measured in a TR-FRET reader, e.g. a Rubystar (BMG Labtechnologies, Offenburg, Germany) or a Viewlux (Perkin-Elmer). The ratio of the emissions at 665 nm and at […] was taken as the measure for the amount of phosphorylated substrate. The data were normalised (enzyme reaction without inhibitor=0% inhibition, all other assay components but no enzyme=100% inhibition).

T1 sequence (Q9BUB5 1-424 isoform Q9BUB5-2 T344D): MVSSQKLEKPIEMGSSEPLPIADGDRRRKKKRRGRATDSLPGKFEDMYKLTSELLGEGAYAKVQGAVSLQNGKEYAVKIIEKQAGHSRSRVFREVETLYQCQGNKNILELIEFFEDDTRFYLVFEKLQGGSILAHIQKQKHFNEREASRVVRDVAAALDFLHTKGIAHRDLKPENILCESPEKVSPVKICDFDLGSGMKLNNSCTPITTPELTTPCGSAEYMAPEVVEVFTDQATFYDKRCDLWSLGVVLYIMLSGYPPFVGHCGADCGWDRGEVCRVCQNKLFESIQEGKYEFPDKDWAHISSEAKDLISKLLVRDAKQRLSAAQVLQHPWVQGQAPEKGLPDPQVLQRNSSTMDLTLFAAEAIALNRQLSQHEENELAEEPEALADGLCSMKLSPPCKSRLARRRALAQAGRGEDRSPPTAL
T2 sequence (Q9BUB5 1-424 isoform Q9BUB5-2 T344D): as above

Row | IC50 (human full-lengt MKNK1) | IC50 (human full-length MKNK1) | Structure (SMILES)
1 | 7 nM | 13 nM | N[C@H]1C[C@H](Oc2ccc3ncc(-c4cc5ncccc5o4)n3n2)C1 [Example 28, trans-3-{[3-(Furo[3,2-b]pyridin-2-yl)imidazo[1,2-b]pyridazin-6-yl]oxy}cyclobutanamine]
2 | 8 nM | 16 nM | N[C@H]1C[C@H](Oc2ccc3ncc(-c4cc5cnccc5o4)n3n2)C1 [Example 29, trans-3-{[3-(Furo[3,2-c]pyridin-2-yl)imidazo[1,2-b]pyridazin-6-yl]oxy}cyclobutanamine]
3 | 137 nM | 309 nM | CC(C)[C@H](N)COc1ccc2ncc(-c3cc4cnccc4o3)n2n1 [Example 30, (2S)-1-{[3-(Furo[3,2-c]pyridin-2-yl)imidazo[1,2-b]pyridazin-6-yl]oxy}-3-methylbutan-2-amine]
4 | 13 nM | 28 nM | COc1nccc2oc(-c3cnc4ccc(O[C@H]5CCC[C@@H]5N)nn34)cc12 [Example 31, (1S,2S)-2-{[3-(4-Methoxyfuro[3,2-c]pyridin-2-yl)imidazo[1,2-b]pyridazin-6-yl]-oxy}cyclopentanamine]
5 | 14 nM | 37 nM | CCOc1nccc2oc(-c3cnc4ccc(OC[C@H](C)N)nn34)cc12 [Example 32, (2S)-1-{[3-(4-Ethoxyfuro[3,2-c]pyridin-2-yl)imidazo[1,2-b]pyridazin-6-yl]oxy}-propan-2-amine]
6 | 99 nM | 117 nM | COc1nccc2oc(-c3cnc4ccc(OC(CN)Cc5ccccc5)nn34)cc12 (centres unmarked) [Example 33, 2-{[3-(4-Methoxyfuro[3,2-c]pyridin-2-yl)imidazo[1,2-b]pyridazin-6-yl]oxy}-3-phenylpropan-1-amine]
7 | 5 nM | 15 nM | C[C@H](N)COc1ccc2ncc(-c3cc4c(OCC(C)(C)C)nccc4o3)n2n1 [Example 34, (2S)-1-({3-[4-(2,2-Dimethylpropoxy)furo[3,2-c]pyridin-2-yl]imidazo[1,2-b]-pyridazin-6-yl}oxy)propan-2-amine]
8 | 21 nM | 44 nM | N[C@H]1C[C@H](Oc2ccc3ncc(-c4cc5c(O)nccc5o4)n3n2)C1 [Example 35, 2-{6-[(trans-3-Aminocyclobutyl)oxy]imidazo[1,2-b]pyridazin-3-yl}furo[3,2-c]-pyridin-4-ol]
9 | 4 nM | 4 nM | CCOc1nccc2oc(-c3cnc4ccc(O[C@H]5C[C@H](N)C5)nn34)cc12 [Example 36, trans-3-{[3-(4-Ethoxyfuro[3,2-c]pyridin-2-yl)imidazo[1,2-b]pyridazin-6-yl]oxy}-cyclobutanamine]

The next lines start with the compound.

Row | Structure (SMILES) | IC50 (human full-lengt MKNK1) | IC50 (human full-length MKNK1)
10 | COc1nccc2oc(-c3cnc4ccc(O[C@@H]5CC[C@H](N)C5)nn34)cc12 [Example 18, (1S,3R)-3-{[3-(4-Methoxyfuro[3,2-c]pyridin-2-yl)imidazo[1,2-b]pyridazin-6-yl]-oxy}cyclopentanamine] | 17 nM | 43 nM
11 | CC(C)Oc1nccc2oc(-c3cnc4ccc(OC[C@H](C)N)nn34)cc12 [Example 19, (2S)-1-({3-[4-(Propan-2-yloxy)furo[3,2-c]pyridin-2-yl]imidazo[1,2-b]pyridazin-6-yl}oxy)propan-2-amine] | 17 nM | 34 nM
12 | C[C@H](N)COc1ccc2ncc(-c3cc4cnccc4o3)n2n1 [Example 20, (2S)-1-{[3-(Furo[3,2-c]pyridin-2-yl)imidazo[1,2-b]pyridazin-6-yl]oxy}propan-2-amine] | 64 nM | 132 nM
13 | COc1nccc2oc(-c3cnc4ccc(O[C@H]5CC[C@H](N)CC5)nn34)cc12 [Example 21, trans-4-{[3-(4-Methoxyfuro[3,2-c]pyridin-2-yl)imidazo[1,2-b]pyridazin-6-yl]-oxy}cyclohexanamine salt with formic acid] | 10 nM | 31 nM
14 | COc1nccc2oc(-c3cnc4ccc(OCC(C)(C)N)nn34)cc12 [Example 22, 1-{[3-(4-Methoxyfuro[3,2-c]pyridin-2-yl)imidazo[1,2-b]pyridazin-6-yl]oxy}-2-methylpropan-2-amine] | 14 nM | 79 nM
15 | COc1nccc2oc(-c3cnc4ccc(OCC(CN)c5ccccc5)nn34)cc12 (centres unmarked) [Example 23, 3-{[3-(4-Methoxyfuro[3,2-c]pyridin-2-yl)imidazo[1,2-b]pyridazin-6-yl]oxy}-2-phenylpropan-1-amine] | 32 nM | 57 nM
16 | CC(C)(C)COc1nccc2oc(-c3cnc4ccc(O[C@H]5C[C@H](N)C5)nn34)cc12 [Example 24, trans-3-({3-[4-(2,2-Dimethylpropoxy)furo[3,2-c]pyridin-2-yl]imidazo[1,2-b]-pyridazin-6-yl}oxy)cyclobutanamine] | 3 nM | 4 nM
17 | C[C@H](N)COc1ccc2ncc(-c3cc4c(OCC5CC5)nccc4o3)n2n1 [Example 25, (2S)-1-({3-[4-(Cyclopropylmethoxy)furo[3,2-c]pyridin-2-yl]imidazo[1,2-b]-pyridazin-6-yl}oxy)propan-2-amine] | 16 nM | 28 nM
18 | C[C@@H](N)COc1ccc2ncc(-c3cc4cnccc4o3)n2n1 [Example 26, (2R)-1-{[3-(Furo[3,2-c]pyridin-2-yl)imidazo[1,2-b]pyridazin-6-yl]oxy}propan-2-amine] | 100 nM | 216 nM
19 | COc1nccc2oc(-c3cnc4ccc(OCC5(CN)COC5)nn34)cc12 [Example 27, 1-[3-({[3-(4-Methoxyfuro[3,2-c]pyridin-2-yl)imidazo[1,2-b]pyridazin-6-yl]-oxy}methyl)oxetan-3-yl]methanamine] | 153 nM | 259 nM
